In BindingDB's records for doi:10.1016/j.bmc.2008.03.004 (Florida Atlantic University, 2009):

Target: Collagenase 3 (Homo sapiens, UniProt P45452)
Assay: Inhibition of human recombinant MMP13 expressed in Escherichia coli

Structure (SMILES): COc1cc(-n2nc(C)c3c2OC(=N)C(C#N)C3c2ccccc2)c(Cl)c(Br)c1O (stereo unspecified) [6-amino-1-(3-bromo-2-chloro-4-hydroxy-5-methoxyphenyl)-3-methyl-4-phenyl-1,4-dihydropyrano[2,3-c]pyrazole-5-carbonitrile]
- IC50: > 40 µM
